Measured values published in PMC6471242, “Dereplication by High-Performance Liquid Chromatography (HPLC) with Quadrupole-Time-of-Flight Mass Spectroscopy (qTOF-MS) and Antiviral Activities of Phlorotannins from Ecklonia cava” (Marine Drugs, 2019).
Entries after “also recorded” stand apart in the source; their conditions may differ.

Key:
Cytotoxicity assay (MTT) = conditions: dog
neuraminidase = test: Western blot of viral protein synthesis in H1N1-infected MDCK cells, neuraminidase; conditions: 5, 10, 20, and 40 μM, 24 h
hemagglutinin = test: Western blot of viral protein synthesis in H1N1-infected MDCK cells, hemagglutinin; conditions: 5, 10, 20, and 40 μM, 24 h
in vitro = conditions: dog

Structure (SMILES) | CC50 at 48 h (Cytotoxicity assay (MTT)) [µM] | inhibition of neuraminidase expression (viral protein synthesis, Western blot) (neuraminidase) | inhibition of hemagglutinin expression (viral protein synthesis, Western blot) (hemagglutinin) | CC50 at 48 h (in vitro) [µM]
Oc1cc(O)cc(Oc2c(O)cc(O)c3c2Oc2c(O)cc(Oc4c(O)cc(Oc5c(O)cc(O)c6c5Oc5c(O)cc(O)cc5O6)cc4O)cc2O3)c1 [Compound 11, Dieckol] | > 100 |  |  | 
Oc1cc(O)cc(Oc2c(O)cc(O)c3c2Oc2c(O)cc4oc5c(Oc6cc(O)cc(O)c6)c(O)cc(O)c5c4c2O3)c1 [Compound 12, Phlorofucofuroeckol A] | > 100 | decreased the expression of neuraminidase and hemagglutinin at 10 μM; also recorded: strongest inhibition capacity was observed at 40 µM; also recorded: strong inhibitory effects | decreased the expression of neuraminidase and hemagglutinin at 10 μM; also recorded: strongest inhibition capacity was observed at 40 µM; also recorded: strong inhibitory effects | 
Oc1cc(O)c2c(c1)Oc1c(O)cc(O)cc1O2 [Compound 13, Dibenzo[1,4]dioxine-2,4,7,9-tetraol] | > 100 |  |  | 
Oc1cc(O)c2oc3cc(O)c4oc5cc(O)cc(O)c5oc4c3oc2c1 [Compound 14, Dioxinodehydroeckol] |  |  |  | > 100
